Test system: RFPEC glycocalyx (adsorbed BSA)
Assay: Whole glycocalyx thickness and coverage by BSA immunofluorescence (Example 2)
Assay type: cell-based, rat
Conditions: Hep III 2 h then 16 h, with or without 59 μg/mL HS
Description: RFPEC Culture. A rat fat pad endothelial cell (RFPEC) line^37 was utilized, originally isolated from rat epididymal fat pads by Dr. Mia Thi of Albert Einstein College of Medicine (Bronx, N.Y., USA). RFPECs were selected for their ability to naturally express a robust glycocalyx.^38 These ECs were cultured in tissue culture flasks at 37° C. and 5% CO2 in a humidified environment with Dulbecco's Modified Eagle's Medium (DMEM) supplemented with 10% fetal bovine serum (FBS) and 1% penicillin-streptomycin, all purchased from Thermo Fisher Scientific (Waltham, Mass., USA). For 3-(4,5-dimethylthiazol-2-yl)-5-(3-carboxymethoxyphenyl)-2-(4-sulfophenyl)-2H-tetrazolium (MTS) assays (Sigma-Aldrich Co., St Louis, Mo., USA), RFPECs were seeded at 3.7×10^4 cells/cm^2 in tissue culture-treated, 96-well plates (Falcon; Thermo Fisher Scientific) and imaged on a SpectraMax M3 plate reader to show cell viability and metabolic activity. For confocal imaging, RFPECs were seeded onto 12-mm diameter round glass cover slips (Thermo Fisher Scientific) at 1×10^4 cells/cm^2 in tissue culture-treated six-well plates (Falcon; Thermo Fisher Scientific). […]
RFPEC glycocalyx treatments. […] The red fluorescence detected from conjugated Alexa Fluor 647 was attributed to AuNP within the RFPEC monolayers (details are given in the “Confocal imaging and analysis” section). […]

**Q.** Which results are given for heparan sulfate [HS]?
**A.** whole glycocalyx (BSA) coverage of the EC layer: 75.2%+4.0%; whole glycocalyx (BSA) thickness (mean±SEM): 2.41±0.3 μm

Source: patent US20200023001A1, “GlycoFix (Structurally And Functionally Repaired Endothelial Glycocalyx)” (Northeastern University, priority 2018, published 2020)
